Test results from patent US20010003751A1, “Pharmaceutical composition for treating transient ischemic attack” (priority 1995, published 2001).

Tested on: transient ischemic attack (TIA) associated with the internal carotid arterial system
Assay: phase III clinical study of TIA (efficacy in suppressing TIA recurrence, overall safety, utility ratings)
Format: in vivo, human (TIA patients)
Settings: TIA patients; for Efficacy (%): Effective / Efficacy (%): Indeterminable / Efficacy (%): Ineffective / Efficacy (%): Slightly Effective / Efficacy (%): Worsened: ITT
Description: Subjects and total number: The subjects of this study were patients who developed one or more TIA attacks associated with the internal carotid arterial system (NIH Diagnostic Criteria, 1990) during the 3-month period before initial administration (171 for efficacy and utility, 175 for safety). Tablets each containing 50 mg or 100 mg of the subject compound obtained in Example 1 were orally administered after breakfast once daily for 18 months. The study was conducted in double blind fashion. As regards conversion to cerebral infarction, temporal changes in TIA onset frequency, TIA symptoms and duration, etc., efficacy was rated at 6 months, 1 year and 18 months of administration, using a 5-grade rating system: The attack frequency at time of rating (during therapeutic period) 1 year and 18 months after initial administration served as an efficacy rating index. For rating at 6 months of administration and rating at less than 1 year due to discontinuation (adverse reactions etc.), rating was in regard to duration of administration period, with reference to the following rating criteria. [table] Overall safety was rated on the basis of adverse reactions, complications, and presence or absence of abnormal changes in clinical laboratory parameters and their degrees, using a 5-grade rating system: On the basis of efficacy and overall safety ratings for suppression of TIA recurrence, utility was rated using a 5-grade rating system: With regard to the above rating items, data were analyzed using ITT (intent-to-treat analysis), with the utility rating in overall assessment at final administration (18 months after administration) as the major item.

[1] = 50 mg/day oral once daily for 18 months, 86 patients
[2] = 50 mg/day oral once daily for 18 months, 85 patients
[3] = 100 mg/day oral once daily for 18 months, 89 patients
[4] = 100 mg/day oral once daily for 18 months, 86 patients

O=C(O)CCCC/C=C(\c1ccccc1)c1cccnc1 [Test compound, (E)-7-(3-pyridyl)-7-phenyl-6-heptenic acid]
Overall Safety (%): Considerably Problematic [1]: 1.2% | Overall Safety (%): Indeterminable [1]: 4.7% | Overall Safety (%): No Problem [1]: 86.0% | Overall Safety (%): Slightly Problematic [1]: 8.1% | Overall Safety (%): Very Problematic [1]: 0% | Efficacy (%): Effective [2]: 64.7% | Efficacy (%): Indeterminable [2]: 10.6% | Efficacy (%): Ineffective [2]: 16.5% | Efficacy (%): Slightly Effective [2]: 2.3% | Efficacy (%): Worsened [2]: 5.9% | Overall Safety (%): Considerably Problematic [3]: 1.1% | Overall Safety (%): Indeterminable [3]: 3.4% | Overall Safety (%): No Problem [3]: 79.8% | Overall Safety (%): Slightly Problematic [3]: 13.5% | Overall Safety (%): Very Problematic [3]: 2.2% | Efficacy (%): Effective [4]: 66.3% | Efficacy (%): Indeterminable [4]: 11.6% | Efficacy (%): Ineffective [4]: 8.1% | Efficacy (%): Slightly Effective [4]: 7.0% | Efficacy (%): Worsened [4]: 7.0%
